Test results: PubChem BioAssay AID1963964 (Molecular Pharmacology Branch, DTP, NCI, 2024)

Tested on: 997726-040-R-J2-PDC tumor spheroids, viability
Assay: Anticancer human tumor 997726-040-R-J2-PDC patient-derived squamous cell lung carcinoma cell line growth inhibition [PI3K]
Details: spheroids with HUVEC and MSC; for IC50: curve of first compound; for viability, T/C: stronger effect = lower value
Excerpt: Combinatorial screen of targeted agents with the PI3K inhibitors inavolisib, alpelisib, duvelisib, and copanlisib in multi-cell type tumor spheroids
A high-throughput screen of multi-cell type tumor spheroids was designed to identify active combinations of targeted small molecules and PI3K pathway inhibitors. Complex spheroids include a stromal component modeled by human endothelial cells (HUVEC) and fibroblasts modeled by human mesenchymal stem cells (MSCs). The concentration ranges selected for each drug and investigational agent were based upon clinically achievable concentrations if the clinical Cmax of the agent was known.
Compounds. The drugs and investigational agents: inavolisib (NSC800729), alpelisib (NSC765974), duvelisib (NSC772469), copanlisib (NSC816437), ipatasertib (NSC767898), afuresertib (NSC778305), talazoparib (NSC767125), sapanisertib (NSC764658), selumetinib (NSC741078), tovorafenib (DAY101, NSC766906), vemurafenib (NSC761431), ravoxertinib (NSC781343), sotorasib (NSC818433), MRTX1133 (NSC 836407), abemaciclib (NSC 768073), palbociclib (NSC758247), venetoclax (NSC 766270), SY5609 (NSC837396), enzalutamide (NSC755605), and darolutamide (NSC825331), were obtained from the National Cancer Institute (NCI) Developmental Therapeutics Program Chemical Repository. The FDA-approved anticancer drug set is available from the NCI Developmental Therapeutics Program. […] The stock solutions were prepared in dimethyl sulfoxide (DMSO, Sigma-Aldrich, St. Louis, MO, cat. D2650) at 800-fold the tested concentration and stored at -70 degrees C prior to their use. All drugs and investigational agents were tested over a range starting from a high concentration at or near the clinical Cmax and decreasing in half-log increments. If the clinical Cmax for an agent had not been determined, the highest concentration tested was 10 microM.
Cell Culture. All cells were maintained in an incubator at 37 degrees C and 5% CO2 with 95% humidity. The PDC lines were cultured according to standard operating procedures established by the NCI PDMR (https://pdmr.cancer.gov/sops/default.htm). All PDCs were thawed and cultured in Matrigel-coated flasks prepared with a working solution of 1X Ham's F-12 nutrient mix, without supplementation (Invitrogen, Waltham, MA, cat. 11765054), 100 U/mL penicillin-streptomycin (Invitrogen, cat. 15140122), and 2.5% Matrigel (Corning Inc., Corning, NY, cat. 354248) for the first three passages. The 354836-022-R-J1-PDC, 475296-252-R-J1-PDC, and 997726-040-R-J2-PDC lines were cultured in 6A media, which includes advanced DMEM/F-12 (Thermo Fisher Scientific, cat. 12634028), 10 mM HEPES (Thermo Fisher Scientific, cat. 15630080), 1X GlutaMAX supplement (Thermo Fisher Scientific, cat. 35050061), 0.1 mg/mL primocin (InvivoGen, San Diego, CA, cat. ant-pm-2), 10% defined fetal bovine serum, heat inactivated (HyClone Laboratories Inc., Logan, UT, cat. SH30070.03HI), 50% L-WRN conditioned media (ATCC, cat. CRL-3276), 1.25 mM N-Acetyl-L-cysteine (Sigma-Aldrich, cat. A9165), 10 mM nicotinamide (Sigma-Aldrich, cat. N0636), 1X B-27 supplement (Thermo Fisher Scientific, cat. 17504044), 1X N-2 supplement (Thermo Fisher Scientific, cat. 17502048), and 10 microM Y-27632 dihydrochloride (Tocris Bioscience, Bristol, United Kingdom, cat. 1254). The 624824-186-R-J2-PDC line was cultured in 6C/Colon 1B media, which includes all 6A media components plus 50 ng/mL human EGF recombinant protein (Thermo Fisher Scientific, cat. PHG0311). […]
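Note: spheroids exposed to compounds for seven days before readout.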

CC1(C)CCC(CN2CCN(c3ccc(C(=O)NS(=O)(=O)c4ccc(NCC5CCOCC5)c([N+](=O)[O-])c4)c(Oc4cnc5[nH]ccc5c4)c3)CC2)=C(c2ccc(Cl)cc2)C1 + CC(Nc1ncnc2nc[nH]c12)c1cc2cccc(Cl)c2c(=O)n1-c1ccccc1 was tested. Which IC50 (second compound 0.0316 µM) did it give?
The IC50 was greater than 10 µM.

What about the IC50 (second compound 0.1 µM) of the same compound?
The IC50 was 9.87 µM.

What about the IC50 (second compound 0.316 µM) of the same compound?
The IC50 was 9.36 µM.

And the IC50 (second compound 1 µM)?
The IC50 was greater than 10 µM.

And the IC50 (second compound 3.16 µM)?
The IC50 was 6.26 µM.

And the IC50 (second compound 10 µM)?
Its IC50 is 3.37 µM.

What about the viability, T/C (second compound 0.0316 µM, first compound 0.0316 µM) of the same compound?
The viability, T/C was 101%.

What about the viability, T/C (second compound 0.0316 µM, first compound 0.1 µM) of the same compound?
The viability, T/C was 87.9%.

And the viability, T/C (second compound 0.0316 µM, first compound 0.316 µM)?
Its viability, T/C is 93.4%.

And the viability, T/C (second compound 0.0316 µM, first compound 1 µM)?
Its viability, T/C is 102%.

And the viability, T/C (second compound 0.0316 µM, first compound 3.16 µM)?
The viability, T/C was 104%.

What about the viability, T/C (second compound 0.0316 µM, first compound 10 µM) of the same compound?
The viability, T/C was 52.2%.

And the viability, T/C (second compound 0.1 µM, first compound 0.0316 µM)?
Its viability, T/C is 102%.

What about the viability, T/C (second compound 0.1 µM, first compound 0.1 µM) of the same compound?
The viability, T/C was 94%.

And the viability, T/C (second compound 0.1 µM, first compound 0.316 µM)?
Its viability, T/C is 109%.

What about the viability, T/C (second compound 0.1 µM, first compound 1 µM) of the same compound?
Its viability, T/C is 105%.

And the viability, T/C (second compound 0.1 µM, first compound 3.16 µM)?
Its viability, T/C is 98.6%.

And the viability, T/C (second compound 0.1 µM, first compound 10 µM)?
The viability, T/C was 49.4%.

What about the viability, T/C (second compound 0.316 µM, first compound 0.0316 µM) of the same compound?
Its viability, T/C is 97.1%.

And the viability, T/C (second compound 0.316 µM, first compound 0.1 µM)?
The viability, T/C was 95.4%.

What about the viability, T/C (second compound 0.316 µM, first compound 0.316 µM) of the same compound?
The viability, T/C was 103%.

And the viability, T/C (second compound 0.316 µM, first compound 1 µM)?
Its viability, T/C is 93.5%.

And the viability, T/C (second compound 0.316 µM, first compound 3.16 µM)?
The viability, T/C was 91.7%.

What about the viability, T/C (second compound 0.316 µM, first compound 10 µM) of the same compound?
The viability, T/C was 47.2%.

And the viability, T/C (second compound 1 µM, first compound 0.0316 µM)?
Its viability, T/C is 94.3%.

What about the viability, T/C (second compound 1 µM, first compound 0.1 µM) of the same compound?
The viability, T/C was 85.7%.

And the viability, T/C (second compound 1 µM, first compound 0.316 µM)?
Its viability, T/C is 92%.

And the viability, T/C (second compound 1 µM, first compound 1 µM)?
The viability, T/C was 80.6%.

And the viability, T/C (second compound 1 µM, first compound 3.16 µM)?
Its viability, T/C is 89.9%.

And the viability, T/C (second compound 1 µM, first compound 10 µM)?
Its viability, T/C is 51%.

And the viability, T/C (second compound 3.16 µM, first compound 0.0316 µM)?
The viability, T/C was 73.1%.

And the viability, T/C (second compound 3.16 µM, first compound 0.1 µM)?
The viability, T/C was 74.5%.

And the viability, T/C (second compound 3.16 µM, first compound 0.316 µM)?
The viability, T/C was 73%.

What about the viability, T/C (second compound 3.16 µM, first compound 1 µM) of the same compound?
The viability, T/C was 72.4%.

And the viability, T/C (second compound 3.16 µM, first compound 3.16 µM)?
The viability, T/C was 71.9%.

What about the viability, T/C (second compound 3.16 µM, first compound 10 µM) of the same compound?
Its viability, T/C is 35.1%.

And the viability, T/C (second compound 10 µM, first compound 0.0316 µM)?
Its viability, T/C is 55.7%.

What about the viability, T/C (second compound 10 µM, first compound 0.1 µM) of the same compound?
The viability, T/C was 56.4%.

And the viability, T/C (second compound 10 µM, first compound 0.316 µM)?
The viability, T/C was 48.3%.

What about the viability, T/C (second compound 10 µM, first compound 1 µM) of the same compound?
The viability, T/C was 53.8%.

What about the viability, T/C (second compound 10 µM, first compound 3.16 µM) of the same compound?
Its viability, T/C is 51.2%.

And the viability, T/C (second compound 10 µM, first compound 10 µM)?
The viability, T/C was 29.4%.
